This is an account of results in patent US20130345164A1, “TREATMENTS FOR CELLULAR PROLIFERATIVE DISORDERS AND IDENTIFICATION THEREOF” (UNIVERSITY OF MEDICINE AND DENTISTRY OF NEW JERSEY, priority 2010, published 2013).

One test deals with p21 protein. The experiment in a line: Western Blot of p21 protein levels. In kind it is cell-based, human. (In western blotting, separated proteins are transferred to a membrane and probed.)
The test system of test [1] is cells carrying p53 mutations. Briefly: NCI60 screen Score ranking, p53 mutant case group vs p53 wild-type control group. Conditions: p53 273/248 mutant case group vs p53 wild-type control group; NCI60 data. The procedure:
The Score calculations are carried out by: • (1) calculating a Responsive Fraction, i.e., the fraction of the case cell lines in the Case Group that are responsive to the test treatment; • (2) calculating a Non-Responsive Fraction i.e., the fraction of the control cell lines in the Control Group that are not responsive to the test treatment; and • (3) generating a Score of the test treatment according to Formula I:
Score=the Responsive Fraction×the Non-Responsive Fraction.
Among the NCI60 cell lines, 16 have wild-type p53 and 44 carry a p53 alteration (Ikediobi, O. N., et al., Mol Cancer Ther, 2006. 5(11): p. 2606-12). Mutations at amino acids 273 and 248 are the most frequent, with 5 and 4 cell lines, respectively. Given the abundance of p53 mutations at positions 273 and 248 within the NCI60 cell lines, and their location in the p53-DNA contact, cells carrying these mutations were chosen to form a case group to identify compounds with increased activity in tumors with a mutant p53. On the other hand, cells with a wild-type p53 were chosen to form a control group. The resulting groups are the following:
• Leukemia: CCRF-CEM; • Lung Cancer: NCI-H322M; • Central Nervous System Cancer: SF-295, SF-268, SNB-19, and U251; • Colorectal Cancer: HT29 and SW-620; • Ovarian Cancer: OVCAR-3.
• Breast Cancer: MCF7; • Colorectal Cancer: HCT-116; • Lung Cancer: A549, NCI-H226, and NCI-H460; • Leukemia: SR; • Melanoma: LOXIMVI, MALME-3M, SK-MEL-5, UACC-257, and UACC-62; • Ovarian Cancer: OVCAR-5; • Renal Cancer: A498, ACHN, CAKI-1, and UO-31.
Using the protocols described above, the NCI60 treatment-cell line RG was constructed, taking RS=log10IC50-average(log10IC50) as a relative response sensitivity measurement and computing the average(log10IC50) over all the 60 cell lines. The Case and Control groups listed above were chosen, and the score in Formula I was computed for the 47,624 compounds in the NCI60 screen.

In test [2] the test system is 10(3) cells with human mutant p53 construct 273. Briefly: Growth inhibition assay on isogenic murine fibroblast lines (96-well MTS). To be noted: cells with mutation p53^273. Format: cell-based. The procedure:
(§1) None of these compounds have been previously reported for their selective activity in cells with a mutant p53. To provide further evidence for their specificity, growth inhibition assays were performed on isogenic cell lines. Previously developed murine fibroblast cell line (10)3 (p53 null) and 10(3) with transfection of cytomegalovirus-human mutant p53 constructs (273, 248 and 175) (Dittmer, D., et al., Nature Genetics, 1993. 4(1): p. 42-6) were used as cases, while the murine fibroblast cell line 3T3 was used as a p53 wild type control.
(§2) The compounds were validated using several different cell line systems. The first system used was a mouse embryonic fibroblast (MEF) system in which a p53 null MEF line, 10(3), was used as a parental line from which several stable CMV-mutant p53 transfectants were derived. The p53 mutations investigated were the “hot spot” mutants 175, 248, and 273. NIH3T3 fibroblasts were used as a p53 wild type control.

Test [3] has as its system murine fibroblast cell line (10)3 (p53 null). Described as above. Format: cell-based. To be noted: p53^null cells. The procedure: as §1, §2
For test [4], the system named is 10(3) cells with human mutant p53 construct 175. Described as above. To be noted: cells carrying the p53^173 mutation (so in the source). In kind it is cell-based. The procedure:
as §1, §2

For test [5], the system named is 10(3) cells with human mutant p53 construct 248. The test is described as above. In kind it is cell-based. To be noted: cells with mutation p53^248. The procedure: as §1, §2
For another test, the target named is T1, p53 R175H (Homo sapiens, UniProt P04637, R175H).
T1 construct: one ovarian carcinoma cell line containing a p53^R175H (TOV112D); endogenous in cells; host or cells: TOV112D human ovarian carcinoma cells
Briefly: Immunoprecipitation of TOV112D lysates with mutant specific antibody PAB240. In kind it is cell-based. Conditions: detection with DO-1. The text has this:
This conformational change was confirmed by immunoprecipitation of lysates from NSC319726-treated TOV112D cells using the mutant specific antibody PAB240. To that end, cell lysates were precipitated with PAB240 and detected with p53 (DO-1) antibody which recognizes all types of p53 protein conformations.

Test [6] relates to p53 targets (p21, PUMA, and MDM2). Briefly: Quantitative real-time PCR of p53 targets. In kind it is cell-based, human. To be noted: TOV112D cells, treated vs untreated, normalized with actin. The procedure:
Each treatment had three independent repeats (labeled as 1, 2, and 3); (e) Comparison of the p53 expression signatures of 319726 treated cells with that of p53 wild type, p53 null and p53R175H cell lines in response to gamma-irradiation.
Assays were carried out to compare the mRNA levels of several p53 targets (p21, PUMA, and MDM2) in the TOV112D (p53R175H), OVCAR3 (p53R248W) and SKOV3 (p53 null) upon treatment with the compounds. The relative gene expression level was normalized with the actin and the ratio of the treated level vs. untreated level was shown for each cell line.
Background: In qPCR the cycle at which signal appears reflects the starting amount.

Test [7] deals with MEF cells with exogenous p53 mutations. Briefly: Apoptosis by Annexin V staining in MEF cells. In kind it is cell-based, mouse. Conditions: MEF cells with exogenous p53 mutations. The text has this: Briefly, apoptosis was examined by Annexin V staining using standard methods.

For the compound `COc1cc([C@@H]2c3cc4c(cc3[C@@H](O[C@@H]3O[C@@H]5CO[C@@H](C)O[C@H]5[C@H](O)[C@H]3O)[C@H]3COC(=O)[C@H]23)OCO4)cc(OC)c1O` [Etoposide, reference compound], the “p21 induction (Western blot)” value in the test on p21 protein (TOV112D (p53R175H)) is on record as “failed to induce p21”.

As to `CC1=CC(=C(c2ccc(N)cc2)c2ccc(N)cc2)C=CC1=N.Cl` [NSC93739], the “Score (Formula I)” value in [1] is recorded as 0.50.

Turning to `COc1ccc2c(c1)c1c(C)c3c[n+](C)ccc3c(C)c1n2C` [NSC155694], the “Score (Formula I)” value in [1] was 0.55.

One may read the IC50 as the concentration that inhibits the measured activity by half. In the case of `CC(=NNC(=S)N(C)C)c1ccccn1` [NSC319725], the half-maximal inhibitory concentration (IC50) in [2] is around 100 nM; in [3], around 100 nM; in test [4], around 10 nM; in [5], around 100 nM. The “Score (Formula I)” value in [1] is 0.50. The “amount of p53 R175H immunoprecipitated by mutant specific antibody PAB240” value at p53 R175H is “not”. Besides, the “p21 induction (Western blot)” value was “did induce p21” with p21 protein (SKOV3 (p53 null)) and “did not induce p21” in the test on p21 protein (TOV112D (p53R175H)). The “induction of mRNA of p53 targets p21, PUMA, MDM2” value in [6] is recorded as “no such effect”. The “induction of apoptosis (Annexin V staining)” value in test [7] is given as “did not induce apoptosis”.

For `CC(=O)c1ccc2c(c1)c1c(C)c3c[n+](C)ccc3c(C)c1n2C.[I-]` [NSC612941], in [1], the “Score (Formula I)” value was determined as 0.55.

As to `Cc1ccc(S(=O)(=O)O)cc1.Cn1c2ccccc2n2c3ccccc3c3nnc(N)c-3c12` [NSC694266], the “Score (Formula I)” value in test [1] is 0.50.
